Data from US9492471B2, “Methods of treating a disease or disorder associated with Bruton'S Tyrosine Kinase” (Celgene Avilomics Research, Inc., priority 2013, dated 2016).
Read-outs that look alike come from different tables or passages of the source.

Assays:
Test in all cases: HotSpot kinase profiling
Format in all cases: biochemical
[1] = biological target: T1, CDK3/cyclin E (Homo sapiens, UniProt Q00526)
T1 construct: purchased Reaction Biology Corp
Method in brief: (§1)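 Radio-isotope P81 filtration format. Substrate + required cofactors in reaction buffer, kinase added, 2 h RT. Stop, wash with 0.1% phosphoric acid, detect. % inhibition vs DMSO; mean of duplicates where repeated.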

[2] = biological target: T2, PKN3/PRK3 (Homo sapiens, UniProt Q6P5Z2)
T2 construct: purchased Reaction Biology Corp
T2 sequence (Q6P5Z2 whole entry): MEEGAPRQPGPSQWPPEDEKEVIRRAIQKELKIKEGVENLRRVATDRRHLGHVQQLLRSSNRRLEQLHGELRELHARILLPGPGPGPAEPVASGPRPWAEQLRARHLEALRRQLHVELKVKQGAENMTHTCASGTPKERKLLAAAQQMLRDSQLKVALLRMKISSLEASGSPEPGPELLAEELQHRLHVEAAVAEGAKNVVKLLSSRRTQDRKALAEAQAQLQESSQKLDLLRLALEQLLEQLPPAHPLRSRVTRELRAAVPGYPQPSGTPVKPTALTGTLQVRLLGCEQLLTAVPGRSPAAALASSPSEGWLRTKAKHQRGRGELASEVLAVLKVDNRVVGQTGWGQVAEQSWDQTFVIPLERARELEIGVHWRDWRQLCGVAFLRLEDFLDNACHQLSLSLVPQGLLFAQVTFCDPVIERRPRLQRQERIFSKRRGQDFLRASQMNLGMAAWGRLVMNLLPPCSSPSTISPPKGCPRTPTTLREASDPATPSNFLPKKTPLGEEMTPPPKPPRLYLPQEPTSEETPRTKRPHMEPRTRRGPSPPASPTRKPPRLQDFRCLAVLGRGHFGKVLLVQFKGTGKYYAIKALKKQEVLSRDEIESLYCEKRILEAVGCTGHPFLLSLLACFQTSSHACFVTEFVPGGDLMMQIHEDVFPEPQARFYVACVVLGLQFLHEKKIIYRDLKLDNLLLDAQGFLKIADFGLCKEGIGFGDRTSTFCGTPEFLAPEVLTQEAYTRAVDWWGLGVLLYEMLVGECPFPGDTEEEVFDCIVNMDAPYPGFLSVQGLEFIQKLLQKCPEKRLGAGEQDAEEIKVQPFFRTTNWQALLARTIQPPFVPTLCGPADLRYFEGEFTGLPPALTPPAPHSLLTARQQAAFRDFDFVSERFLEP
Method in brief: as §1

[3] = biological target: T3, GSK3b (Homo sapiens, UniProt P49841)
T3 construct: purchased Reaction Biology Corp
T3 sequence (P49841 whole entry): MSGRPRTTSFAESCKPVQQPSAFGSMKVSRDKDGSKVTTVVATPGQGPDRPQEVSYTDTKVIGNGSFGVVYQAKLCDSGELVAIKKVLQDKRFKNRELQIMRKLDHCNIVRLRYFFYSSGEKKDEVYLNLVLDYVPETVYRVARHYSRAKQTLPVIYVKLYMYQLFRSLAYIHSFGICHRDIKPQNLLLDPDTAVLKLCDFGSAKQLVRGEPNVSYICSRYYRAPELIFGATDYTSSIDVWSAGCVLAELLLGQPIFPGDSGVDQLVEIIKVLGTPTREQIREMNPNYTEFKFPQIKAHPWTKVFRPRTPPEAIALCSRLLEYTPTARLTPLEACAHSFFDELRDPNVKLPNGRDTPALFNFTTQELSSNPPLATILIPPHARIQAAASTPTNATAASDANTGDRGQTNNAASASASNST
Method in brief: as §1

[4] = biological target: T4, CDK4/cyclin D3 (Homo sapiens, UniProt P11802)
T4 construct: purchased Reaction Biology Corp
T4 sequence (P11802 whole entry): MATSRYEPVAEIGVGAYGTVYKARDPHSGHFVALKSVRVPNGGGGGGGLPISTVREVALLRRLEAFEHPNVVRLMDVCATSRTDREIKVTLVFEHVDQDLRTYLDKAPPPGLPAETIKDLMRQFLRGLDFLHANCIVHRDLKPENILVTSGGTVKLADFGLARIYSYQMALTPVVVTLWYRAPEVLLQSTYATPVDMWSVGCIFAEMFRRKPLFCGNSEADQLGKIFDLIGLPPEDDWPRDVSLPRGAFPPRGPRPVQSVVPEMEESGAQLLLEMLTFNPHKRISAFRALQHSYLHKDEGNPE
T4 sequence (P30281 whole entry partner): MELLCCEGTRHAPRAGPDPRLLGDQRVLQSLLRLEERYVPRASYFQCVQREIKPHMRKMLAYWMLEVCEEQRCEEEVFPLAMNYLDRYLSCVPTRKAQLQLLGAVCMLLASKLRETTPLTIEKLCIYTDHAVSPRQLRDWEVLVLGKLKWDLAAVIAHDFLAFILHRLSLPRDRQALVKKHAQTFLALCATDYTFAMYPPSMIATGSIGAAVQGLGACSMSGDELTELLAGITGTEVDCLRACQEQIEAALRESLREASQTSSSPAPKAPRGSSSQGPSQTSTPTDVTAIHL
Method in brief: as §1

[5] = biological target: T5, ERBB4/HER4 (Homo sapiens, UniProt Q15303)
T5 construct: purchased Reaction Biology Corp
Method in brief: as §1

[6] = biological target: T6, FGFR2 (Homo sapiens, UniProt P21802)
T6 construct: purchased Reaction Biology Corp
T6 sequence (P21802 22-821): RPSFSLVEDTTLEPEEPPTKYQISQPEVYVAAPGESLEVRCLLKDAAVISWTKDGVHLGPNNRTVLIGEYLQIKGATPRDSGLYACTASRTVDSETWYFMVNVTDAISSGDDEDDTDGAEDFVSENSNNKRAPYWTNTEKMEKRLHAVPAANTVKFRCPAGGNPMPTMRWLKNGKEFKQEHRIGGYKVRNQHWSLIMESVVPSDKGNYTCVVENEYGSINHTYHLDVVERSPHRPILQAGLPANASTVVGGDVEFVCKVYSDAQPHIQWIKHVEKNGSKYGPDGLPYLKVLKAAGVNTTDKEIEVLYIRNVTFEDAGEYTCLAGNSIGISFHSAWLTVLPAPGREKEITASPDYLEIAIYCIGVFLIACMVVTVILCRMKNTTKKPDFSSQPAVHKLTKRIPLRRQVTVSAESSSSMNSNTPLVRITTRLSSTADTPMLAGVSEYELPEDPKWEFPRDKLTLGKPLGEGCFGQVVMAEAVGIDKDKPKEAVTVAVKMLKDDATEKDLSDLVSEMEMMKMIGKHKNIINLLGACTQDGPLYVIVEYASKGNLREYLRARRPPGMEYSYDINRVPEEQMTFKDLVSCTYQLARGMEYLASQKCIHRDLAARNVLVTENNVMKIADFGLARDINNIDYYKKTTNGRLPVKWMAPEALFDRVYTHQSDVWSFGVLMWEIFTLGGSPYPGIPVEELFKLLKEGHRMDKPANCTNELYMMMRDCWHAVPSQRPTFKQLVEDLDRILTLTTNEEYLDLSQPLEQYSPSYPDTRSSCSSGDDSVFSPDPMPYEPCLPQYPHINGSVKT
Method in brief: as §1

[7] = biological target: T7, STK38L/NDR2 (Homo sapiens, UniProt Q9Y2H1)
T7 construct: purchased Reaction Biology Corp
T7 sequence (Q9Y2H1 whole entry): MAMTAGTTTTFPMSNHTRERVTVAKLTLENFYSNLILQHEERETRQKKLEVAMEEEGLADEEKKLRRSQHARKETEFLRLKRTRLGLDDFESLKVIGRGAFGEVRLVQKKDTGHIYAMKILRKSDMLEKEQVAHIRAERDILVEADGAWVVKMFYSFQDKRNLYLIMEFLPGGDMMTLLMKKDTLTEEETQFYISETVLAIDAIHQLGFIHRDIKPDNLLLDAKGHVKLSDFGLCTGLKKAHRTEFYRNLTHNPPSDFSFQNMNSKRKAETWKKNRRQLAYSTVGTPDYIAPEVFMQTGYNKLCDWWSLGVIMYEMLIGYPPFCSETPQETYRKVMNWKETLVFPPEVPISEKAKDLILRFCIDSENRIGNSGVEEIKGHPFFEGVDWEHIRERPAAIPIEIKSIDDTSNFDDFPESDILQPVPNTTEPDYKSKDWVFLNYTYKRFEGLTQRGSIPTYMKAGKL
Method in brief: as §1

[8] = biological target: T8, TEC (Homo sapiens, UniProt P42680)
T8 construct: purchased Reaction Biology Corp
T8 sequence (P42680 1-631): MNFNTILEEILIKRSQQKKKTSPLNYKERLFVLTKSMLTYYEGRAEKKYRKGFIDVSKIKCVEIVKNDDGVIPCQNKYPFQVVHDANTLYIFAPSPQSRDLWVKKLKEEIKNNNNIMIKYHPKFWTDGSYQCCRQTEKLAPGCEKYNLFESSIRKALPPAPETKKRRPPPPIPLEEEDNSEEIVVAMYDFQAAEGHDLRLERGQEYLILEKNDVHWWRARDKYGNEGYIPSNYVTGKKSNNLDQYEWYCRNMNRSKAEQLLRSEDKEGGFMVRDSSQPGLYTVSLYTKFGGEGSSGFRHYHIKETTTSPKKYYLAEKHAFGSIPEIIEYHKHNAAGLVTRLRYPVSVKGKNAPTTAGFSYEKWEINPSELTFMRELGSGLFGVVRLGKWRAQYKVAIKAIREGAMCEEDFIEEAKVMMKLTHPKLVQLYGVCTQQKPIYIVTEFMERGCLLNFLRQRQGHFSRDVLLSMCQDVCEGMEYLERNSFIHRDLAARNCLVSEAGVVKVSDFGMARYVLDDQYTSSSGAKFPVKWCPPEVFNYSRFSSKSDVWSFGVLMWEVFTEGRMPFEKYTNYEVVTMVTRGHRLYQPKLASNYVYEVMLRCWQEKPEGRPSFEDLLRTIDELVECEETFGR
Method in brief: as §1

[9] = biological target: T9, BRSK2 (Homo sapiens, UniProt Q8IWQ3)
T9 construct: purchased Reaction Biology Corp
T9 sequence (Q8IWQ3 1-736): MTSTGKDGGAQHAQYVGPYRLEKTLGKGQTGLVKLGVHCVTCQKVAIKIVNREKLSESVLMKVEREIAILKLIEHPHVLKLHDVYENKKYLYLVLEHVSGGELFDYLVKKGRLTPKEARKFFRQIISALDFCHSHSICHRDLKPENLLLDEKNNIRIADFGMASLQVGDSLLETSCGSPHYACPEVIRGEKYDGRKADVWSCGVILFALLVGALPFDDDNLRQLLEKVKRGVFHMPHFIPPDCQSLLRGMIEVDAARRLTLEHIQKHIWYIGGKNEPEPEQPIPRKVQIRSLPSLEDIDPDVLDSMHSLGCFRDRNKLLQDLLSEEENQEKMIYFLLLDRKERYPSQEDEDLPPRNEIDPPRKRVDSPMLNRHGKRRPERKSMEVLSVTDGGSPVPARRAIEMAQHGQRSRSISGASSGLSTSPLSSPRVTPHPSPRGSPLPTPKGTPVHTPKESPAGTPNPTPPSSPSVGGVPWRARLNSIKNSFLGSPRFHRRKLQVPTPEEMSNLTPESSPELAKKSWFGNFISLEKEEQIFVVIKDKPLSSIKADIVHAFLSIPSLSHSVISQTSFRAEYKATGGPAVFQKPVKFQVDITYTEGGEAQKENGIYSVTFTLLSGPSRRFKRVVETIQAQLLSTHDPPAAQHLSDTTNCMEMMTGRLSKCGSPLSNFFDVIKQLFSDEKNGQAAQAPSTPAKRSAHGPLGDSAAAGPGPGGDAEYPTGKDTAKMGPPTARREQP
Method in brief: as §1

[10] = read-out: % Enzyme Activity (relative to DMSO controls) Run 1
[11] = read-out: % Enzyme Activity (relative to DMSO controls) Run 2

T1 sequence (Q00526 whole entry): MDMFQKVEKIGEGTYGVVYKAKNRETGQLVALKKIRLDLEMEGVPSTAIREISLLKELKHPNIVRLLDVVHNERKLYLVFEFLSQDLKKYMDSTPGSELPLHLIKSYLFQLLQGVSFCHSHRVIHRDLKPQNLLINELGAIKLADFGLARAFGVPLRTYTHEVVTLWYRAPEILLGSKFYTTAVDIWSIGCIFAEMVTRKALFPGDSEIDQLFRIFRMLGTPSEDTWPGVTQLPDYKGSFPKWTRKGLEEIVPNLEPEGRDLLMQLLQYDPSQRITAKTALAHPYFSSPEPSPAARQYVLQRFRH
T1 sequence (P24864 whole entry partner): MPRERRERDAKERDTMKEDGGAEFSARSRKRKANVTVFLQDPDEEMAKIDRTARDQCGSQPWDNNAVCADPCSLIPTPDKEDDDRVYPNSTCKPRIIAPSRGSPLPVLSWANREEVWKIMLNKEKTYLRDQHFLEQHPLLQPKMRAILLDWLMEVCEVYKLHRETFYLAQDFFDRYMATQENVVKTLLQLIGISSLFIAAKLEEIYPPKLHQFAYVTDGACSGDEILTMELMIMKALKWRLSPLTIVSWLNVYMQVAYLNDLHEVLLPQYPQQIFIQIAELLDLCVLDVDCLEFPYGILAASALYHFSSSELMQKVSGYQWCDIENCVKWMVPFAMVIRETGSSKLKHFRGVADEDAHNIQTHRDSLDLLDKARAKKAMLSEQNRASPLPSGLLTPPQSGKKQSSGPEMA

SMILES: C=CC(=O)Nc1cccc(Nc2nc(Nc3ccc(OCCOC)c(F)c3)ncc2F)c1 [Compound 2]
- inhibition at 3 µM [1]: 22.4%
- remaining activity at 3 µM [1, 10]: 78.2%
- remaining activity at 3 µM [1, 11]: 77%
- inhibition at 3 µM [2]: -7.32%
- remaining activity at 3 µM [2, 10]: 106%
- remaining activity at 3 µM [2, 11]: 108%
- inhibition at 3 µM [3]: -22.2%
- remaining activity at 3 µM [3, 10]: 122%
- remaining activity at 3 µM [3, 11]: 123%
- inhibition at 3 µM [4]: 5.15%
- remaining activity at 3 µM [4, 10]: 95.5%
- remaining activity at 3 µM [4, 11]: 94.2%
- inhibition at 3 µM [5]: 91.3%
- remaining activity at 3 µM [5, 10]: 9.15%
- remaining activity at 3 µM [5, 11]: 8.32%
- inhibition at 3 µM [6]: 63.4%
- remaining activity at 3 µM [6, 10]: 37.3%
- remaining activity at 3 µM [6, 11]: 36%
- inhibition at 3 µM [7]: -1.33%
- remaining activity at 3 µM [7, 10]: 107%
- remaining activity at 3 µM [7, 11]: 96%
- inhibition at 3 µM [8]: 89.1%
- remaining activity at 3 µM [8, 10]: 10.4%
- remaining activity at 3 µM [8, 11]: 11.5%
- inhibition at 3 µM [9]: 8.66%
- remaining activity at 3 µM [9, 10]: 91%
- remaining activity at 3 µM [9, 11]: 91.7%
